# Columns and labels:
# [1] = organism: Rattus norvegicus; assay: Inhibition of cell growth by compound at a concentration of 100 uM in 9Ltk+ cells; Completely stopped the process; format: functional, cell-based
# [2] = Inhibition of cell growth by compound at a concentration of 10 uM in 9Ltk+ cells; format: functional; conditions: Rattus norvegicus
# [3] = organism: Rattus norvegicus; assay: Inhibition of cell growth by compound at a concentration of 10 uM in 9Ltk+ cells; […]; format: functional, cell-based
# [4] = organism: Rattus norvegicus; assay: Anti proliferation activity determined; Weak effect; format: functional
structure (smiles),measurement,setting,value
Nc1nc2c(ncn2COCCO)c(=O)[nH]1,inhibition,[1],Completely stopped the process
Nc1nc(O)c2ncn(COC(CO)CF)c2n1 (centres undefined),inhibition at 10 µM,[2],50%
Nc1nc2c(ncn2COC(CO)CO)c(=O)[nH]1,inhibition,[3],Completely stopped the process
same,Activity,[4],Weak effect

# From ChEMBL document CHEMBL1130487, “Development of a positron emission tomography radiopharmaceutical for imaging thymidine kinase gene expression: Synthesis and in vitro evaluation of 9-{3-[18F] Fluoro-1-hydroxy-2-propoxymethyl guanine” (1997)
